ChEMBL document CHEMBL5321218, “Bifunctional degraders of cyclin dependent kinase 9 (CDK9): Probing the relationship between linker length, properties, and selective protein degradation” (Eur J Med Chem, 2023)
Activity calls are given as the source filed them. The rule behind the calls is not given here.

Columns and labels:
MOLM-13 [1] = experiment: Anticancer activity against human MOLM-13 cells assessed as cell growth inhibition measured after 48 hrs by MTS assay; assay type: functional, cell-based; conditions: MOLM-13, 48 h
[2] = target: T1, Protein cereblon/Cyclin-dependent kinase 9 (Homo sapiens, UniProt P50750+Q96SW2); experiment: Protac activity at CRBN/CDK9 in human MV4-11 cells assessed as CDK9 degradation at 1 uM measured after 6 hrs by Western blot analysis; assay type: cell-based
Target sequence in this assay (P50750 whole entry, looked up): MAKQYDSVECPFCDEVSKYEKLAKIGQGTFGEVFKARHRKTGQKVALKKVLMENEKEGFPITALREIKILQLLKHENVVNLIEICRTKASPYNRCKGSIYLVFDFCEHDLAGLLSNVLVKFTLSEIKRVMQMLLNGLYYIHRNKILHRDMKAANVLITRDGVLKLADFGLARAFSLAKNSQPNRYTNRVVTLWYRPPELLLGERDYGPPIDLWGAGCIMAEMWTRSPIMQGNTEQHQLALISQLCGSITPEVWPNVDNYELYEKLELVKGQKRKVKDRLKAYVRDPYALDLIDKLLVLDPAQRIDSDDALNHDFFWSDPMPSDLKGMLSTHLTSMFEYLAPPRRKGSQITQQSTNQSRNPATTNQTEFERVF
Target sequence in this assay (Q96SW2 whole entry, looked up): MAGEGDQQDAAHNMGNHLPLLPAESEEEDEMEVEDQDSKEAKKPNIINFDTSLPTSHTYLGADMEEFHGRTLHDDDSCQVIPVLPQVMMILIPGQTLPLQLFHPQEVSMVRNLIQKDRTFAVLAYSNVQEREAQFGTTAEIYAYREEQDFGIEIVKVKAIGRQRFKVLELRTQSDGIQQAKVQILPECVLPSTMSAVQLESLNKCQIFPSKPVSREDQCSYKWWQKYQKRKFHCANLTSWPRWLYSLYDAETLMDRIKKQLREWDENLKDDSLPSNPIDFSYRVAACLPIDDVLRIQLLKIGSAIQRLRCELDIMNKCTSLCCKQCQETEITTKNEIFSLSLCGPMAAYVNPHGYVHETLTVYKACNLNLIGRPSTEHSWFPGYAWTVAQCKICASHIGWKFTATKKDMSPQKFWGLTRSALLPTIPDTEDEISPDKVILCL

[3] = target: T1, Protein cereblon/Cyclin-dependent kinase 9; experiment: Protac activity at CRBN/CDK9 in human MV4-11 cells assessed as reduction in MCL-1 level at 1 uM measured after 6 hrs by Western blot analysis; assay type: cell-based
Target sequence in this assay (P50750 whole entry, looked up): as the sequence (P50750 whole entry, looked up) above
Target sequence in this assay (Q96SW2 whole entry, looked up): as the sequence (Q96SW2 whole entry, looked up) above

[4] = target: T1, Protein cereblon/Cyclin-dependent kinase 9; experiment: Protac activity at CRBN/CDK9 isoform 55 in human MOLM-13 cells assessed assessed as protein degradation measured after 6 hrs by Western blot analysis; assay type: cell-based
Target sequence in this assay (P50750 whole entry): as the sequence (P50750 whole entry, looked up) above
Target sequence in this assay (Q96SW2 whole entry): as the sequence (Q96SW2 whole entry, looked up) above

[5] = target: T1, Protein cereblon/Cyclin-dependent kinase 9; experiment: Protac activity at CRBN/CDK9 in human MV4-11 cells assessed as reduction in c-Myc level upto 5 uM measured after 6 hrs by Western blot analysis; assay type: cell-based
Target sequence in this assay (P50750 whole entry, looked up): as the sequence (P50750 whole entry, looked up) above
Target sequence in this assay (Q96SW2 whole entry, looked up): as the sequence (Q96SW2 whole entry, looked up) above

[6] = target: T1, Protein cereblon/Cyclin-dependent kinase 9; experiment: Protac activity at CRBN/CDK9 isoform 42 in human MOLM-13 cells assessed assessed as protein degradation measured after 6 hrs by Western blot analysis; assay type: cell-based
Target sequence in this assay (P50750 whole entry): as the sequence (P50750 whole entry, looked up) above
Target sequence in this assay (Q96SW2 whole entry): as the sequence (Q96SW2 whole entry, looked up) above

MOLM-13 [7] = experiment: Effect on ikaros expression in human MOLM-13 cells at 0.1 uM measured after 6 hrs by Western blot analysis; assay type: functional, cell-based
MV4-11 = experiment: Anticancer activity against human MV4-11 cells assessed as cell growth inhibition for 6 hrs followed by compound washout measured after 24 hrs by Annexin V/Propidium iodide staining based flow cytometric analysis; assay type: functional
[8] = target: T1, Protein cereblon/Cyclin-dependent kinase 9; experiment: Protac activity at CRBN/CDK9 isoform 42 in human MOLM-13 cells assessed assessed as protein degradation measured after 6 hrs by Western blot analysis relative to control; assay type: cell-based
Target sequence in this assay (P50750 whole entry, looked up): as the sequence (P50750 whole entry, looked up) above
Target sequence in this assay (Q96SW2 whole entry, looked up): as the sequence (Q96SW2 whole entry, looked up) above

[9] = target: T1, Protein cereblon/Cyclin-dependent kinase 9; experiment: Protac activity at CRBN/CDK9 isoform 55 in human MOLM-13 cells assessed assessed as protein degradation measured after 6 hrs by Western blot analysis relative to control; assay type: cell-based
Target sequence in this assay (P50750 whole entry, looked up): as the sequence (P50750 whole entry, looked up) above
Target sequence in this assay (Q96SW2 whole entry, looked up): as the sequence (Q96SW2 whole entry, looked up) above

[10] = target: T1, Protein cereblon/Cyclin-dependent kinase 9; experiment: Protac activity at CRBN/CDK9 in human MV4-11 cells assessed as protein degradation at 1 uM measured after 6 hrs in presence of carfilzomib by Western blot analysis; assay type: cell-based
Target sequence in this assay (P50750 whole entry, looked up): as the sequence (P50750 whole entry, looked up) above
Target sequence in this assay (Q96SW2 whole entry, looked up): as the sequence (Q96SW2 whole entry, looked up) above

MOLM-13 [11] = experiment: Effect on ikaros expression in human MOLM-13 cells upto 5 uM measured after 6 hrs by Western blot analysis; assay type: functional, cell-based
T-lymphocyte = experiment: Induction of CDK2 degradation in T-lymphocyte (unknown origin); assay type: cell-based
[12] = target: Cyclin-dependent kinase 9 (Homo sapiens) (UniProt P50750); experiment: Induction of CDK9 degradation in human MOLM-13 cells assessed as fold change measured after 6 hrs by proteomics analysis; assay type: cell-based
[13] = target: T1, Protein cereblon/Cyclin-dependent kinase 9; experiment: Protac activity at CRBN/CDK9 in human MV4-11 cells assessed as protein degradation at 1 uM treated for 6 hrs followed by compound washout measured after 24 hrs by Western blot analysis; assay type: cell-based
B-lymphocyte = experiment: Induction of CDK2 degradation in B-lymphocyte (unknown origin); assay type: cell-based
MOLM-13 [14] = experiment: Effect on aiolos expression in human MOLM-13 cells upto 5 uM measured after 6 hrs by Western blot analysis; assay type: functional, cell-based
[15] = target: T1, Protein cereblon/Cyclin-dependent kinase 9; experiment: Protac activity at CRBN/CDK9 in human MV4-11 cells assessed as protein degradation at 1 uM measured after 6 hrs in presence of […] by Western blot analysis; assay type: cell-based
[16] = target: T1, Protein cereblon/Cyclin-dependent kinase 9; experiment: Protac activity at CRBN/CDK9 in human MV4-11 cells assessed as protein degradation at 1 uM measured after 6 hrs in presence of bortezomib by Western blot analysis; assay type: cell-based
[17] = target: T1, Protein cereblon/Cyclin-dependent kinase 9; experiment: Protac activity at CRBN/CDK9 in human MV4-11 cells assessed as protein degradation at 1 uM measured after 6 hrs in presence of pomalidomide by Western blot analysis; assay type: cell-based
[18] = target: T1, Protein cereblon/Cyclin-dependent kinase 9; experiment: Protac activity at CRBN/CDK9 in human MV4-11 cells assessed as reduction in MCL-1 level upto 5 uM measured after 6 hrs by Western blot analysis; assay type: cell-based
[19] = target: T1, Protein cereblon/Cyclin-dependent kinase 9; experiment: Protac activity at CRBN/CDK9 in human MV4-11 cells assessed as protein degradation at 1 uM treated for 6 hrs followed by compound washout measured after 48 hrs by Western blot analysis; assay type: cell-based
[20] = target: T1, Protein cereblon/Cyclin-dependent kinase 9; experiment: Protac activity at CRBN/CDK9 in human MV4-11 cells assessed as CDK9 degradation at 5 uM measured after 6 hrs by Western blot analysis; assay type: cell-based
[21] = target: T1, Protein cereblon/Cyclin-dependent kinase 9; experiment: Protac activity at CRBN/CDK9 in human MV4-11 cells assessed as CDK9 degradation at 0.01 to 5 uM measured after 6 hrs by Western blot analysis; assay type: cell-based; conditions: dose 0.01-5 µM

Cyclin-dependent kinase 9 (Homo sapiens), sequence (P50750 whole entry): as the sequence (P50750 whole entry, looked up) above

SMILES: O=C(CCCCCCCCCCNC(=O)CNc1cccc2c1C(=O)N(C1CCC(=O)NC1=O)C2=O)NCCCCCCCCCCC(=O)N1CCC(NC(=O)c2n[nH]cc2NC(=O)c2c(Cl)cccc2Cl)CC1 (stereo not given)
- IC50 (MOLM-13 [1]): 28.4 µM

SMILES: O=C(COc1cccc2c1C(=O)N(C1CCC(=O)NC1=O)C2=O)NCCCCCC(=O)N1CCC(NC(=O)c2n[nH]cc2NC(=O)c2c(Cl)cccc2Cl)CC1 (stereo not given)
- IC50 (MOLM-13 [1]): 2.7 µM

SMILES: O=C(CCCCCCNC(=O)CNc1cccc2c1C(=O)N(C1CCC(=O)NC1=O)C2=O)NCCCCCCC(=O)N1CCC(NC(=O)c2n[nH]cc2NC(=O)c2c(Cl)cccc2Cl)CC1 (stereo not given)
- IC50 (MOLM-13 [1]): 6.96 µM

SMILES: O=C(COc1cccc2c1C(=O)N(C1CCC(=O)NC1=O)C2=O)NCCCCCCCCCCCC(=O)N1CCC(NC(=O)c2n[nH]cc2NC(=O)c2c(Cl)cccc2Cl)CC1 (stereo not given)
- Activity [2]: Active
- IC50 (MOLM-13 [1]): 0.12 µM
- Activity [3]: Active

SMILES: O=C(CCCCCNC(=O)CNc1cccc2c1C(=O)N(C1CCC(=O)NC1=O)C2=O)NCCCCCC(=O)N1CCC(NC(=O)c2n[nH]cc2NC(=O)c2c(Cl)cccc2Cl)CC1 (stereo not given)
- IC50 (MOLM-13 [1]): 13 µM

SMILES: O=C(CCCCCCCCNC(=O)CNc1cccc2c1C(=O)N(C1CCC(=O)NC1=O)C2=O)NCCCCCCCCC(=O)N1CCC(NC(=O)c2n[nH]cc2NC(=O)c2c(Cl)cccc2Cl)CC1 (stereo not given)
- IC50 (MOLM-13 [1]): 1.4 µM

SMILES: O=C(CNc1cccc2c1C(=O)N(C1CCC(=O)NC1=O)C2=O)NCCCCCCCCCCC(=O)N1CCC(NC(=O)c2n[nH]cc2NC(=O)c2c(Cl)cccc2Cl)CC1 (stereo not given)
- DC50 [4]: 0.05 µM
- Activity [5]: Active
- DC50 [6]: 0.03 µM
- Activity (MOLM-13 [7]): inactive
- Activity [2]: Active
- IC50 (MOLM-13 [1]): 42.1 µM
- EC50 (MV4-11): 0.2 µM
- Emax [8]: 93.1%
- Emax [9]: 91.6%

SMILES: O=C(CCCCCCCNC(=O)CNc1cccc2c1C(=O)N(C1CCC(=O)NC1=O)C2=O)NCCCCCCCC(=O)N1CCC(NC(=O)c2n[nH]cc2NC(=O)c2c(Cl)cccc2Cl)CC1 (stereo not given)
- IC50 (MOLM-13 [1]): 3.01 µM

SMILES: O=C(CCCCCCCCCCNC(=O)COc1cccc2c1C(=O)N(C1CCC(=O)NC1=O)C2=O)NCCCCCCCCCCC(=O)N1CCC(NC(=O)c2n[nH]cc2NC(=O)c2c(Cl)cccc2Cl)CC1 (stereo not given)
- IC50 (MOLM-13 [1]): 22.2 µM

SMILES: O=C(CCCCCCCNC(=O)COc1cccc2c1C(=O)N(C1CCC(=O)NC1=O)C2=O)NCCCCCCCC(=O)N1CCC(NC(=O)c2n[nH]cc2NC(=O)c2c(Cl)cccc2Cl)CC1 (stereo not given)
- IC50 (MOLM-13 [1]): 2.39 µM

SMILES: O=C(COc1cccc2c1C(=O)N(C1CCC(=O)NC1=O)C2=O)NCCOCCOCCOCC(=O)N1CCC(NC(=O)c2n[nH]cc2NC(=O)c2c(Cl)cccc2Cl)CC1 (stereo not given)
- IC50 (MOLM-13 [1]): 92.2 µM

SMILES: O=C(CCCCCCCCCCCNC(=O)COc1cccc2c1C(=O)N(C1CCC(=O)NC1=O)C2=O)NCCCCCCCCCCCC(=O)N1CCC(NC(=O)c2n[nH]cc2NC(=O)c2c(Cl)cccc2Cl)CC1 (stereo not given)
- IC50 (MOLM-13 [1]): 83.2 µM

SMILES: O=C(NC1CCNCC1)c1n[nH]cc1NC(=O)c1c(Cl)cccc1Cl
- EC50 (MV4-11): 1.1 µM

SMILES: O=C1CCC(N2C(=O)c3cccc(NCC(=O)N4CCC(NC(=O)c5n[nH]cc5NC(=O)c5c(Cl)cccc5Cl)CC4)c3C2=O)C(=O)N1 (stereo not given)
- Activity [2]: inactive
- IC50 (MOLM-13 [1]): 774 µM
- Activity [3]: inactive

SMILES: O=C(COc1cccc2c1C(=O)N(C1CCC(=O)NC1=O)C2=O)NCCCCCCCC(=O)N1CCC(NC(=O)c2n[nH]cc2NC(=O)c2c(Cl)cccc2Cl)CC1 (stereo not given)
- Activity [2]: Active
- IC50 (MOLM-13 [1]): 0.21 µM
- Activity [3]: Active

SMILES: O=C(CCCCCCNC(=O)COc1cccc2c1C(=O)N(C1CCC(=O)NC1=O)C2=O)NCCCCCCC(=O)N1CCC(NC(=O)c2n[nH]cc2NC(=O)c2c(Cl)cccc2Cl)CC1 (stereo not given)
- IC50 (MOLM-13 [1]): 6.27 µM

SMILES: O=C(COc1cccc2c1C(=O)N(C1CCC(=O)NC1=O)C2=O)NCCC(=O)N1CCC(NC(=O)c2n[nH]cc2NC(=O)c2c(Cl)cccc2Cl)CC1 (stereo not given)
- Activity [2]: inactive
- IC50 (MOLM-13 [1]): 39.7 µM

SMILES: O=C(COc1cccc2c1C(=O)N(C1CCC(=O)NC1=O)C2=O)NCCCCCCCCCCC(=O)N1CCC(NC(=O)c2n[nH]cc2NC(=O)c2c(Cl)cccc2Cl)CC1 (stereo not given)
- Activity [10]: inactive
- Activity (MOLM-13 [11]): inactive
- DC50 [4]: 0.14 µM
- DC50 [6]: 0.1 µM
- Activity (T-lymphocyte): Active
- fold change (FC) [12]: > 2
- Activity [13]: Active
- Activity [2]: Active
- IC50 (MOLM-13 [1]): 0.04 µM
- Activity (B-lymphocyte): Active
- EC50 (MV4-11): 0.4 µM
- Activity [3]: Active
- Emax [8]: 93.1%
- Activity (MOLM-13 [14]): inactive
- Activity [15]: inactive
- Activity [16]: inactive
- Activity [17]: inactive
- Emax [9]: 91.6%
- Activity [18]: Active
- Activity [19]: inactive

SMILES: O=C(COc1cccc2c1C(=O)N(C1CCC(=O)NC1=O)C2=O)NCCC(=O)Nc1cccc(C(=O)NCCC(=O)N2CCC(NC(=O)c3n[nH]cc3NC(=O)c3c(Cl)cccc3Cl)CC2)c1 (stereo not given)
- Activity [20]: inactive

SMILES: O=C(COc1cccc2c1C(=O)N(C1CCC(=O)NC1=O)C2=O)NCCCCC(=O)N1CCC(NC(=O)c2n[nH]cc2NC(=O)c2c(Cl)cccc2Cl)CC1 (stereo not given)
- IC50 (MOLM-13 [1]): 43.6 µM

SMILES: O=C(CCCCCCCCCNC(=O)CNc1cccc2c1C(=O)N(C1CCC(=O)NC1=O)C2=O)NCCCCCCCCCC(=O)N1CCC(NC(=O)c2n[nH]cc2NC(=O)c2c(Cl)cccc2Cl)CC1 (stereo not given)
- IC50 (MOLM-13 [1]): 9.43 µM

SMILES: O=C(CCNC(=O)CNc1cccc2c1C(=O)N(C1CCC(=O)NC1=O)C2=O)NCCC(=O)NCCC(=O)N1CCC(NC(=O)c2n[nH]cc2NC(=O)c2c(Cl)cccc2Cl)CC1 (stereo not given)
- Activity [20]: inactive

SMILES: O=C(CCCCCCCCCNC(=O)COc1cccc2c1C(=O)N(C1CCC(=O)NC1=O)C2=O)NCCCCCCCCCC(=O)N1CCC(NC(=O)c2n[nH]cc2NC(=O)c2c(Cl)cccc2Cl)CC1 (stereo not given)
- IC50 (MOLM-13 [1]): 2.22 µM

SMILES: O=C1CCC(N2C(=O)c3cccc(OCC(=O)N4CCC(NC(=O)c5n[nH]cc5NC(=O)c5c(Cl)cccc5Cl)CC4)c3C2=O)C(=O)N1 (stereo not given)
- Activity [2]: inactive
- IC50 (MOLM-13 [1]): 6.62 µM

SMILES: O=C(CCCCCCCCNC(=O)COc1cccc2c1C(=O)N(C1CCC(=O)NC1=O)C2=O)NCCCCCCCCC(=O)N1CCC(NC(=O)c2n[nH]cc2NC(=O)c2c(Cl)cccc2Cl)CC1 (stereo not given)
- IC50 (MOLM-13 [1]): 0.82 µM

SMILES: O=C(CCCCCNC(=O)COc1cccc2c1C(=O)N(C1CCC(=O)NC1=O)C2=O)NCCCCCC(=O)N1CCC(NC(=O)c2n[nH]cc2NC(=O)c2c(Cl)cccc2Cl)CC1 (stereo not given)
- IC50 (MOLM-13 [1]): 11.7 µM

SMILES: O=C(CCCCNC(=O)COc1cccc2c1C(=O)N(C1CCC(=O)NC1=O)C2=O)NCCCCC(=O)N1CCC(NC(=O)c2n[nH]cc2NC(=O)c2c(Cl)cccc2Cl)CC1 (stereo not given)
- IC50 (MOLM-13 [1]): 47.4 µM
- Activity [21]: inactive

SMILES: O=C(CCCCNC(=O)CNc1cccc2c1C(=O)N(C1CCC(=O)NC1=O)C2=O)NCCCCC(=O)N1CCC(NC(=O)c2n[nH]cc2NC(=O)c2c(Cl)cccc2Cl)CC1 (stereo not given)
- IC50 (MOLM-13 [1]): 29.7 µM
- Activity [21]: inactive
